Where two headings read alike, the source gives them in different places.
Assays:
[1] = system: common ragweed; assay: Test C pre-/postemergence herbicide test; format: in vivo, Ambrosia elatior; parameters: key to Plant response rating, Ragweed: 0 = no effect, 100 = complete control
Description: (§1) Seeds of plant species selected from bermudagrass (Cynodon dactylon (L.) Pers.), Surinam grass (Urochloa decumbens (Staph) R. D. Webster, previously named Brachiaria decumbens Stapf), cocklebur (Xanthium strumarium L.), corn (Zea mays L.), large crabgrass (Digitaria sanguinalis (L.) Scop.), woolly cupgrass (Eriochloa villosa (Thunb.) Kunth), giant foxtail (Setaria faberi Herrm.), goosegrass (Eleusine indica (L.) Gaertn.), johnsongrass (Sorghum halepense (L.) Pers.), kochia (Kochia scoparia (L.) Schrad.), lambsquarters (Chenopodium album L.), morningglory (Ipomoea coccinea L.), eastern black nightshade (Solanum ptycanthum Dunal), yellow nutsedge (Cyperus esculentus L.), pigweed (Amaranthus retroflexus L.), common ragweed (Ambrosia elatior L.), soybean (Glycine max (L.) Merr.), common (oilseed) sunflower (Helianthus annuus L.) and velvetleaf (Abutilon theophrasti Medik.) were planted and treated preemergence with test chemicals formulated in a non-phytotoxic solvent mixture which included a surfactant.
(§2) At the same time, plants selected from these crop and weed species and also winter barley (Hordeum vulgare L.), blackgrass (Alopecurus myosuroides Huds.), canarygrass (Phalaris minor Retz.), chickweed (Stellaria media (L.) Vill.), downy bromegrass (Bromus tectorum L.), green foxtail (Setaria viridis (L.) Beauv.), Italian ryegrass (Lolium multiflorum Lam.), wheat (Triticum aestivum L.), wild oat (Avenafatua L.) and windgrass (Apera spica-venti (L.) Beauv.) were treated with postemergence applications of some of the test chemicals formulated in the same manner. Plants ranged in height from 2 to 18 cm (1- to 4-leaf stage) for postemergence treatments. Plant species in the flooded paddy test consisted of rice (Oryza sativa), smallflower umbrella sedge (Cyperus difformis L.), ducksalad (Heteranthera limosa (Sw.) Willd.) and barnyardgrass (Echinochloa crus-galli (L.) Beauv.) grown to the 2-leaf stage for testing. Treated plants and controls were maintained in a greenhouse for 12 to 14 days, after which time all species were compared to controls and visually evaluated. Plant response ratings, summarized in Table C, are based on a scale of 0 to 100 where 0 is no effect and 100 is complete control. A dash (-) response means no test result.

[2] = system: Surinam grass; assay: Test C pre-/postemergence herbicide test; format: in vivo, Urochloa decumbens
Description: as §1, §2

[3] = system: goosegrass; assay: Test C pre-/postemergence herbicide test; format: in vivo, Eleusine indica
Description: as §1, §2

[4] = system: wheat; assay: Test B postemergence herbicide test; format: in vivo, Triticum aestivum; parameters: key to Wheat plant response rating: 0 = no effect, 100 = complete control
Summary of the method: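 Scale 0–100: zero equals no visible effect, 100 complete control, judged by eye relative to controls. Timing: 13 to 15 days in greenhouse post-treatment. Growth stage at spraying: two leaves (paddy) or one to four leaves, 2–18 cm (postemergence).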

[5] = system: Surinam grass; assay: Test B pre-/postemergence herbicide test; format: in vivo, Urochloa decumbens; details: for pest or weed control at 125 g/ha / pest or weed control at 500 g/ha: Urochloa decumbens
Summary of the method: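 Plants compared with untreated controls 13–15 days post-treatment and given a visual 0–100 injury score. Applications: preemergence to seeds; postemergence at 1- to 4-leaf (2–18 cm); paddy species flooded, 2-leaf stage. Vehicle non-phytotoxic, surfactant included.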

[6] = system: morningglory; assay: Test A pre-/postemergence herbicide test; format: in vivo, Ipomoea spp.; details: for pest or weed control at 500 g/ha / pest or weed control at 2000 g/ha: Ipomoea, 240 h
Summary of the method: (§3)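 Seeds sown in sandy loam received a preemergence directed soil spray of compound in non-phytotoxic solvent with surfactant; postemergence plants (2–10 cm, one- to two-leaf stage) were sprayed to runoff at the same time. After ~10 days in greenhouse, injury was rated visually versus untreated controls (0 = no effect, 100 = complete control).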

[7] = system: redroot pigweed; assay: Test A pre-/postemergence herbicide test; format: in vivo, Amaranthus retroflexus; details: for pest or weed control at 500 g/ha / pest or weed control at 2000 g/ha: Amaranthus retroflexus, 240 h
Summary of the method: as §3

[8] = Postemergence, 250 g ai/ha, scale 0 to 100, 0 no effect, 100 complete control
[9] = postemergence, 125 g ai/ha, scale 0 to 100
[10] = postemergence, 62 g ai/ha, scale 0 to 100
[11] = Postemergence, 500 g ai/ha, visual rating after 13 to 15 days, scale 0 (no effect) to 100 (complete control)
[12] = postemergence, 125 g ai/ha, visual rating, scale 0 (no effect) to 100 (complete control)
[13] = post-emergence, Postemergence, 500 g ai/ha, 0 to 100 scale, 0 no effect, 100 complete control, read-out: Morningglory plant response rating
[14] = post-emergence, Postemergence, 2000 g ai/ha, 0 to 100 scale, 0 no effect, 100 complete control, read-out: Plant response rating, Morningglory
[15] = pre-emergence, Preemergence, 500 g ai/ha, visual rating, 0 to 100 scale (0 no effect, 100 complete control), read-out: Morningglory plant response rating
[16] = pre-emergence, Preemergence, 2000 g ai/ha, visual rating, 0 to 100 scale (0 no effect, 100 complete control), read-out: Morningglory plant response rating
[17] = Triticum aestivum, post-emergence, 336 h, postemergence, 500 g ai/ha, visual rating, scale 0 (no effect) to 100 (complete control), read-out: Wheat plant response rating
[18] = post-emergence, postemergence, 125 g ai/ha, visual rating, scale 0 (no effect) to 100 (complete control), read-out: Surinam Grass plant response rating
[19] = post-emergence, postemergence, 500 g ai/ha, visual rating, scale 0 (no effect) to 100 (complete control), read-out: Surinam Grass plant response rating
[20] = pre-emergence, 500 g ai/ha, visual rating 0-100, 0 no effect, 100 complete control, read-out: Plant response rating, Surinam Grass
[21] = pre-emergence, preemergence, 125 g ai/ha, 0 to 100 scale, 0 is no effect, 100 is complete control, read-out: Plant response rating, Surinam Grass
[22] = post-emergence, Postemergence, 500 g ai/ha, 0 to 100 scale, 0 no effect, 100 complete control, read-out: Pigweed plant response rating
[23] = post-emergence, Postemergence, 2000 g ai/ha, 0 to 100 scale, 0 no effect, 100 complete control, read-out: Plant response rating, Pigweed
[24] = pre-emergence, Preemergence, 2000 g ai/ha, visual rating, 0 to 100 scale (0 no effect, 100 complete control), read-out: Pigweed plant response rating
[25] = pre-emergence, preemergence, 500 g ai/ha, visual injury, 0 to 100 scale (0 no effect, 100 complete control), read-out: Pigweed plant response rating
[26] = Postemergence, 500 g ai/ha, 0 to 100 scale, 0 no effect, 100 complete control
[27] = Postemergence, 2000 g ai/ha, 0 to 100 scale, 0 no effect, 100 complete control
[28] = Preemergence, 2000 g ai/ha, visual rating, 0 to 100 scale (0 no effect, 100 complete control)
[29] = preemergence, 500 g ai/ha, visual injury, 0 to 100 scale (0 no effect, 100 complete control)
[30] = postemergence, 500 g ai/ha, scale 0 to 100, 0 is no effect, 100 is complete control
[31] = 125 g ai/ha, 0 = no effect, 100 = complete control, preemergence
[32] = 500 g ai/ha, visual rating, 0 = no effect, 100 = complete control, preemergence

Row | Structure (SMILES) | Wheat plant response rating [4, 12] | Surinam Grass plant response rating [5, 12] | pest or weed control at 500 g/ha [6, 13] | pest or weed control at 2000 g/ha [6, 14] | pest or weed control at 500 g/ha [6, 15] | pest or weed control at 2000 g/ha [6, 16] | plant injury at 500 g/ha [4, 17] | pest or weed control at 125 g/ha [5, 18] | pest or weed control at 500 g/ha [5, 19] | pest or weed control at 500 g/ha [5, 20] | pest or weed control at 125 g/ha [5, 21] | pest or weed control at 500 g/ha [7, 22] | pest or weed control at 2000 g/ha [7, 23] | pest or weed control at 2000 g/ha [7, 24] | pest or weed control at 500 g/ha [7, 25] | Morningglory plant response rating [6, 26] | Plant response rating, Morningglory [6, 27] | Morningglory plant response rating [6, 28] | Morningglory plant response rating [6, 29] | Wheat plant response rating [4, 30] | further results
1 | CCn1nc(C(C)(C)C)cc1C(=O)Nc1cccc(C(=O)OC)c1 [Compound 81] | 20 | 40 |  |  |  |  |  |  |  |  |  |  |  |  |  |  |  |  |  |  | Plant response rating, Ragweed [1, 8]: 60; Plant response rating, Ragweed [1, 9]: 60; Plant response rating, Ragweed [1, 10]: 40; Plant response rating, Surinam Grass [2, 8]: 80; Plant response rating, Surinam Grass [2, 9]: 50; Plant response rating, Surinam Grass [2, 10]: 50; Plant response rating, Goosegrass [3, 8]: 10; Plant response rating, Goosegrass [3, 9]: 5; Plant response rating, Goosegrass [3, 10]: 0; Plant response rating, Wheat [4, 11]: 40; Plant response rating, Surinam Grass [5, 11]: 60; Plant response rating, Surinam Grass ([5]; preemergence, 125 g ai/ha, 0 to 100 scale, 0 is no effect, 100 is complete control): 0
2 | CCn1nc(C(C)(C)C)cc1C(=O)Nc1cccc(C(=O)OC)n1 [Compound 143, methyl 6-[[[3-(1,1-dimethylethyl)-1-ethyl-1H-pyrazol-5-yl]carbonyl]amino]-2-pyridinecarboxylate] |  |  | 10% | 25% | 0% | 0% | 0% | 10% | 10% | 0% | 0% | 20% | 35% | 0% | 0% |  |  |  |  |  | 
3 | CCn1nc(C(C)(C)C)cc1C(=O)Nc1cc(C(=O)OC)ccn1 [Compound 151, methyl 2-[[[3-(1,1-dimethylethyl)-1-ethyl-1H-pyrazol-5-yl]carbonyl]amino]-4-pyridinecarboxylate] |  |  | 10% | 20% | 0% | 0% | 20% | 10% | 10% | 10% | 0% | 35% | 70% | 0% | 0% |  |  |  |  |  | 
4 | CCOC(=O)c1ccc(F)c(NC(=O)C2CC(C(C)(C)C)=NN2CC)c1 (stereo not shown) [Compound 267, ethyl 3-[[[3-(1,1-dimethylethyl)-1-ethyl-4,5-dihydro-1H-pyrazol-5-yl]carbonyl]amino]-4-fluorobenzoate] |  |  | 30% | 45% |  | 45% |  | 30% |  |  |  | 40% | 60% | 80% | 5% |  |  |  |  |  | pest or weed control at 500 g/ha ([6]; pre-emergence, preemergence, 500 g ai/ha, visual injury, 0 to 100 scale (0 no effect, 100 complete control), read-out: Morningglory plant response rating): 20%; plant injury at 125 g/ha ([4]; Triticum aestivum, post-emergence, 336 h, postemergence, 125 g ai/ha, visual rating, scale 0 (no effect) to 100 (complete control), read-out: Wheat plant response rating): 20%; plant injury at 500 g/ha ([4]; Triticum aestivum, post-emergence, 336 h, postemergence, 500 g ai/ha, scale 0 to 100, 0 is no effect, 100 is complete control, read-out: Wheat plant response rating): 30%; pest or weed control at 500 g/ha ([5]; post-emergence, postemergence, 500 g ai/ha, scale 0 to 100, 0 is no effect, 100 is complete control, read-out: Surinam Grass plant response rating): 50%; pest or weed control at 125 g/ha ([5]; pre-emergence, 125 g ai/ha, 0 = no effect, 100 = complete control, read-out: Surinam Grass plant response rating (0 to 100 scale)): 10%; pest or weed control at 500 g/ha ([5]; pre-emergence, 500 g ai/ha, visual rating, 0 = no effect, 100 = complete control, read-out: Plant response rating, Surinam Grass): 50%
5 | CCn1nc(C(C)(C)C)cc1C(=O)Nc1cccc(OC(C)C)c1 [Compound 273] | 30 | 20 |  |  |  |  |  |  |  |  |  |  |  |  |  | 70 | 75 | 80 | 45 | 40 | Surinam Grass plant response rating (0 to 100 scale) [5, 31]: 20; Plant response rating, Surinam Grass [5, 32]: 50; Surinam Grass plant response rating [5, 30]: 40; Pigweed plant response rating [7, 26]: 100; Plant response rating, Pigweed [7, 27]: 100; Pigweed plant response rating [7, 28]: 100; Pigweed plant response rating [7, 29]: 100
6 | CCn1nc(C(C)(C)C)cc1C(=O)Nc1cccc(C(=O)N2CC=CC2)c1 [Compound 286] | 20 | 10 |  |  |  |  |  |  |  |  |  |  |  |  |  | 20 | 35 | 40 | 30 | 30 | Surinam Grass plant response rating (0 to 100 scale) [5, 31]: 10; Plant response rating, Surinam Grass [5, 32]: 60; Surinam Grass plant response rating [5, 30]: 20; Pigweed plant response rating [7, 26]: 55; Plant response rating, Pigweed [7, 27]: 85; Pigweed plant response rating [7, 28]: 95; Pigweed plant response rating [7, 29]: 85
